Measured values as given in patent US10532985B2, “Heterocycle and carbocycle derivatives having TRKA inhibitory activity” (Shionogi & Co., Ltd., priority 2014, dated 2020).
Like-named read-outs stand apart in the source and are kept apart here.

Molecular target: T1, human TrkA (Homo sapiens, UniProt P04629)
T1 construct: purchased Lifetechnologies PV3144
Assay: Test Example 2: Human TrkA Inhibition Assay
Format: biochemical
Details: Test Example 2
Protocol: After the incubation for 90 min at room temperature, ten μL of termination buffer (100 mmol/L HEPES, 40 mmol/L ethylenediaminetetraacetic acid (EDTA), 10 mmol/L magnesium chloride, 0.003 vol % Brij-35, 0.004 vol % Tween20, 1 mmol/L DTT and 0.16 vol % Coating Reagent 3) was added in each well to stop the enzyme reaction. Fluorescent intensities (FI) of phosphorylated and non-phosphorylated fluorescent substrates were measured by LabChip EZReader II (Caliper LifeSciences, Inc.) and conversion ratio (CR) was calculated by the following formula-1. The CR in the well applied with DMSO alone was used as a negative control and the CR in the well without applying TrkA was used as a positive control. The inhibitory effect of each compound on TrkA phosphorylation was calculated by the following formula-2. CR (%)=(FI of phosphorylated substrate/(FI of phosphorylated substrate+FI of non-phosphorylated substrate))×100 (Formula-1) Inhibitory effect on TrkA phosphorylation (%)=(1−(CR in compound treated well−CR in positive control)/(CR in negative control−CR in positive control))×100. (Formula-2)

[1] = human TrkA inhibition, class symbols A/B/C, read-out: IC50_nM
[2] = human TrkA 2.5 nmol/L, ATP 500 μmol/L, 90 min at room temperature, read-out: TrkA inhibitory activity IC50

T1 sequence (P04629 33-796): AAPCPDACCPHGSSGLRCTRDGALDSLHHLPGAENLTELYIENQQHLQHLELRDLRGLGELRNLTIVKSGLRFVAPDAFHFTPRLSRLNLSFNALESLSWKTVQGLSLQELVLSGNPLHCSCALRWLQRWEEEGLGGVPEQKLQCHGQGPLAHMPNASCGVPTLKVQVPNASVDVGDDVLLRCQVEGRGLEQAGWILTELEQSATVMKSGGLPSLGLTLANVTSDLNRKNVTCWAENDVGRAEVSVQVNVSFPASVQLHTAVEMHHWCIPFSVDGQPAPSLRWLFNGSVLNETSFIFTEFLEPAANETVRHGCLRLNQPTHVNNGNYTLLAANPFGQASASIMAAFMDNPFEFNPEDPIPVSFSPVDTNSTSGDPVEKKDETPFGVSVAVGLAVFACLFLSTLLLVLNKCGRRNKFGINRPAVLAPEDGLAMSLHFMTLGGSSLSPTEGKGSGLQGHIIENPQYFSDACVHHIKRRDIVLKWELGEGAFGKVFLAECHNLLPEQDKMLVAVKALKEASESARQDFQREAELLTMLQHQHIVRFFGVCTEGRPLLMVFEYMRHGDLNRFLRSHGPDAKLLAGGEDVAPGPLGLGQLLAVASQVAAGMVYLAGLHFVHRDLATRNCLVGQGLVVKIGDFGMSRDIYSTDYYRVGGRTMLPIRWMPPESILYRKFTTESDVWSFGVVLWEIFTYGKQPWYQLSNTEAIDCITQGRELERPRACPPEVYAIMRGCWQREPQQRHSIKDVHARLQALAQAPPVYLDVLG

Row | SMILES | IC50 [1] [nM] | IC50 [2] [nM]
1 | COCCN1C[C@@H](NC(=O)Nc2c(C)c(-c3cnn(C)c3)nn2-c2ccccc2)[C@H](c2nc3ccccc3o2)C1 (racemic) [Compound I-156] | > 1000 | –
2 | Cc1c(-c2cnn(C)c2)nn(-c2ccccc2)c1NC(=O)N[C@@H]1CC2(CC(=O)C2)C[C@H]1c1ccccc1 (racemic) [Compound I-157] | – | 3300
3 | Cc1c(-c2cnn(C)c2)nn(-c2ccccc2)c1NC(=O)N[C@@H]1CC(=O)C[C@H]1c1ccccc1 (racemic) [Compound I-161] | – | 4200
4 | COCCN1C[C@@H](NC(=O)Nc2c(C)c(-c3cnn(C)c3)nn2-c2ccccc2)[C@H](c2ccc3c(c2)NCCO3)C1 (racemic) [Compound I-162] | > 1000 | –
5 | COCCN1C[C@@H](NC(=O)Nc2c(C)c(-c3cnn(C)c3)nn2-c2ccccc2)[C@H](c2ccc3nccn3c2)C1 (racemic) [Compound I-165] | > 1000 | –
6 | COCCN1C[C@@H](NC(=O)Nc2c(C)c(-c3cnn(C)c3)nn2-c2ccccc2)[C@H](c2ccc3c(c2)N(C(=O)OC(C)(C)C)CCO3)C1 (racemic) [Compound I-167] | > 1000 | –
7 | COC1CC2(C1)C[C@@H](NC(=O)Nc1c(C)c(-c3cnn(C)c3)nn1-c1ccccc1)[C@H](c1ccccc1)C2 (mixture of isomers) [Compound I-170] | > 1000 | –
8 | COCCN1C[C@@H](NC(=O)Nc2c(C)c(-c3cnn(C)c3)nn2-c2ccccc2)[C@H](c2cccc(N(C)C)c2)C1 (racemic) [Compound I-171] | > 1000 | –
9 | Cc1c(-c2cnn(C)c2)nn(-c2ccccc2)c1NC(=O)N[C@@H]1CC2(CC(O)C2)C[C@H]1c1ccccc1 (mixture of isomers) [Compound I-172] | > 1000 | –
10 | COCCN1C[C@@H](NC(=O)Nc2c(C)c(-c3cnn(C)c3)nn2-c2ccccc2)[C@H](c2cccc(-c3cn[nH]c3)c2)C1 (racemic) [Compound I-175] | > 1000 | –
11 | Cc1c(-c2cnn(C)c2)nn(-c2ccccc2)c1NC(=O)N[C@@H]1C[C@@H](C)N(C)[C@H]1c1ccc(F)c(F)c1 (racemic) [I 78] | > 1000 | –
12 | COCOC1C[C@@H](NC(=O)Nc2c(C)c(-c3cnn(C)c3)nn2-c2ccccc2)[C@H](c2ccccc2)C1 (relative stereo) [Compound I-121] | 100 to 1000 | –
13 | Cc1c(-c2cnn(C)c2)nn(-c2ccccc2)c1NC(=O)NC1CNCCC1c1ccc(F)c(F)c1 (stereo not shown) [Compound I-2] | > 1000 | –
14 | COCCN1CCC(c2ccc(F)c(F)c2)C(NC(=O)Nc2c(C)c(-c3cnn(C)c3)nn2-c2ccccc2)C1 (stereo not shown) [Compound I-4] | > 1000 | –
15 | Cc1c(-c2cnn(C)c2)nn(-c2ccccc2)c1NC(=O)NC1CCCCC1Cc1ccc(Cl)cc1 (stereo not shown) [Compound I-14] | > 1000 | –
16 | Cc1c(-c2cnn(C)c2)nn(-c2ccccc2)c1NC(=O)N[C@@H]1CN(CCOc2ccccc2)C[C@H]1c1ccc(F)c(F)c1 [Compound I-23] | 100 to 1000 | –
17 | Cc1c(-c2cnn(C)c2)nn(-c2ccccc2)c1NC(=O)N[C@@H]1CN(CC2CCCO2)C[C@H]1c1ccc(F)c(F)c1 (stereo partly shown) [Compound I-24] | 100 to 1000 | –
18 | Cc1c(-c2cnn(C)c2)nn(-c2ccccc2)c1NC(=O)N[C@@H]1C[N+](C)(C)C[C@H]1c1ccc(F)c(F)c1 [Compound I-25] | > 1000 | –
19 | COCC(=O)N1C[C@@H](NC(=O)Nc2c(C)c(-c3cnn(C)c3)nn2-c2ccccc2)[C@H](c2ccc(F)c(F)c2)C1 [Compound I-26] | > 1000 | –
20 | COCCC(=O)N1C[C@@H](NC(=O)Nc2c(C)c(-c3cnn(C)c3)nn2-c2ccccc2)[C@H](c2ccc(F)c(F)c2)C1 [Compound I-27] | > 1000 | –
21 | CC(=O)N1C[C@@H](NC(=O)Nc2c(C)c(-c3cnn(C)c3)nn2-c2ccccc2)[C@H](c2ccc(F)c(F)c2)C1 [Compound I-28] | > 1000 | –
22 | Cc1c(-c2cnn(C)c2)nn(-c2ccccc2)c1NC(=O)N[C@@H]1CN(CCNC(=O)OC(C)(C)C)C[C@H]1c1ccc(F)c(F)c1 [Compound I-31] | > 1000 | –
23 | COCCN1C[C@@H](NC(=O)N(C)c2c(C)c(-c3cnn(C)c3)nn2-c2ccccc2)[C@H](c2ccc(F)c(F)c2)C1 [Compound I-32] | > 1000 | –
24 | Cc1c(-c2cnn(C)c2)nn(-c2ccccc2)c1NC(=O)N[C@@H]1CN(C=O)C[C@H]1c1ccc(F)c(F)c1 [Compound I-35] | > 1000 | –
25 | Cc1c(-c2cnn(C)c2)nn(-c2ccccc2)c1NC(=O)N[C@@H]1CC(C)C[C@H]1c1ccccc1 (stereo partly shown) [Compound I-36] | < 100 | –
26 | Cc1c(-c2cnn(C)c2)nn(-c2ccccc2)c1NC(=O)N[C@@H]1CN(C2COC2)C[C@H]1c1ccc(F)c(F)c1 [Compound I-37] | 100 to 1000 | –
27 | Cc1c(-c2cnn(C)c2)nn(-c2ccccc2)c1NC(=O)N[C@@H]1CN(C2CC(F)(F)C2)C[C@H]1c1ccc(F)c(F)c1 [Compound I-38] | > 1000 | –
28 | Cc1c(-c2cnn(C)c2)nn(-c2ccccc2)c1NC(=O)N[C@@H]1CN(C2CCOC2)C[C@H]1c1ccc(F)c(F)c1 (stereo partly shown) [Compound I-39] | > 1000 | –

Row | SMILES | IC50 [1] [nM] | IC50 [2] [nM]
29 | CC(=O)NCCN1C[C@@H](NC(=O)Nc2c(C)c(-c3cnn(C)c3)nn2-c2ccccc2)[C@H](c2ccc(F)c(F)c2)C1 [Compound I-40] | > 1000 | –
30 | COC(=O)NCCN1C[C@@H](NC(=O)Nc2c(C)c(-c3cnn(C)c3)nn2-c2ccccc2)[C@H](c2ccc(F)c(F)c2)C1 [Compound I-41] | > 1000 | –
31 | Cc1c(-c2cnn(C)c2)nn(-c2ccccc2)c1NC(=O)N[C@@H]1CN(CCNS(C)(=O)=O)C[C@H]1c1ccc(F)c(F)c1 [Compound I-42] | 100 to 1000 | –
32 | Cc1c(-c2cnn(C)c2)nn(-c2ccccc2)c1NC(=O)N[C@@H]1CN(CC2CCCCO2)C[C@H]1c1ccc(F)c(F)c1 (stereo partly shown) [Compound I-43] | > 1000 | –
33 | Cc1c(-c2cnn(C)c2)nn(-c2ccccc2)c1NC(=O)N[C@@H]1CN(S(C)(=O)=O)C[C@H]1c1ccc(F)c(F)c1 [Compound I-45] | > 1000 | –
34 | Cc1c(-c2cnn(C)c2)nn(-c2ccccc2)c1NC(=O)N[C@@H]1CN(CCS(C)(=O)=O)C[C@H]1c1ccc(F)c(F)c1 [Compound I-46] | > 1000 | –
35 | Cc1c(-c2cnn(C)c2)nn(-c2ccccc2)c1NC(=O)N[C@@H]1CN(CCc2ccccc2)C[C@H]1c1ccc(F)c(F)c1 [Compound I-62] | > 1000 | –
36 | Cc1c(-c2cnn(C)c2)nn(-c2ccccc2)c1NC(=O)N[C@@H]1CN(CCCS(C)(=O)=O)C[C@H]1c1ccc(F)c(F)c1 [Compound I-64] | > 1000 | –
37 | Cc1c(-c2cnn(C)c2)nn(-c2ccccc2)c1NC(=O)N[C@@H]1CN(CC2CC2)C[C@H]1c1ccc(F)c(F)c1 [Compound I-66] | 100 to 1000 | –
38 | Cc1c(-c2cnn(C)c2)nn(-c2ccccc2)c1NC(=O)N[C@@H]1CN(CCNC(=O)C(F)(F)F)C[C@H]1c1ccc(F)c(F)c1 [Compound I-72] | > 1000 | –
39 | Cc1c(-c2cnn(C)c2)nn(-c2ccccc2)c1NC(=O)N[C@@H]1CN(CC(F)(F)F)C(=O)[C@H]1c1ccc(F)c(F)c1 [Compound I-74] | > 1000 | –
40 | COCCN1C[C@@H](NC(=O)C(O)c2c(C)c(-c3cnn(C)c3)nn2-c2ccccc2)[C@H](c2ccc(F)c(F)c2)C1 (stereo partly shown) [Compound I-79] | 100 to 1000 | –
41 | COCOCCN1C[C@@H](NC(=O)Nc2c(C)c(-c3cnn(C)c3)nn2-c2ccccc2)[C@H](c2ccc(F)c(F)c2)C1 [Compound I-80] | 100 to 1000 | –
42 | COCCOCCN1C[C@@H](NC(=O)Nc2c(C)c(-c3cnn(C)c3)nn2-c2ccccc2)[C@H](c2ccc(F)c(F)c2)C1 [Compound I-81] | 100 to 1000 | –
43 | COCCC1C[C@@H](NC(=O)Nc2c(C)c(-c3cnn(C)c3)nn2-c2ccccc2)[C@H](c2ccccc2)C1 (stereo partly shown) [Compound I-85] | < 100 | –
44 | COCCC1C[C@@H](NC(=O)Nc2c(C)c(-c3cnn(C)c3)nn2-c2ccccc2)[C@H](c2ccccc2)C1 (stereo partly shown) [Compound I-88] | < 100 | –
45 | Cc1c(-c2cnn(C)c2)nn(-c2ccccc2)c1NC(=O)N[C@@H]1CN(Cc2ccc(C#N)o2)C[C@H]1c1ccc(F)c(F)c1 [Compound I-89] | < 100 | –
46 | Cc1c(-c2cnn(C)c2)nn(-c2ccccc2)c1NC(=O)N[C@@H]1CN(Cc2cscn2)C[C@H]1c1ccc(F)c(F)c1 [Compound I-90] | < 100 | –
47 | COCC(CNO)N1C[C@@H](NC(=O)Nc2c(C)c(-c3cnn(C)c3)nn2-c2ccccc2)[C@H](c2ccc(F)c(F)c2)C1 (stereo partly shown) [Compound I-92] | < 100 | –
48 | COCC(CC#N)N1C[C@@H](NC(=O)Nc2c(C)c(-c3cnn(C)c3)nn2-c2ccccc2)[C@H](c2ccc(F)c(F)c2)C1 (stereo partly shown) [Compound I-93] | – | 21
49 | COCC[C@H]1C[C@@H](NC(=O)Nc2c(C)c(-c3cnn(C)c3)nn2-c2ccccc2)[C@H](c2ccccc2)C1 [Compound I-95] | < 100 | –
50 | Cc1c(-c2cnn(C)c2)nn(-c2ccccc2)c1NC(=O)N[C@@H]1CN(Cc2nccs2)C[C@H]1c1ccc(F)c(F)c1 [Compound I-97] | < 100 | –
51 | Cc1c(-c2cnn(C)c2)nn(-c2ccccc2)c1NC(=O)N[C@@H]1CN(Cc2ccon2)C[C@H]1c1ccc(F)c(F)c1 [Compound I-98] | < 100 | –
52 | COCC(CCl)N1C[C@@H](NC(=O)Nc2c(C)c(-c3cnn(C)c3)nn2-c2ccccc2)[C@H](c2ccc(F)c(F)c2)C1 (stereo partly shown) [Compound I-99] | < 100 | –
53 | COCC(Cn1cccn1)N1C[C@@H](NC(=O)Nc2c(C)c(-c3cnn(C)c3)nn2-c2ccccc2)[C@H](c2ccc(F)c(F)c2)C1 (stereo partly shown) [Compound I-100] | – | 34
54 | Cc1c(-c2cnn(C)c2)nn(-c2ccccc2)c1NC(=O)N[C@@H]1CN(C(C)c2ccco2)C[C@H]1c1ccc(F)c(F)c1 (stereo partly shown) [Compound I-101] | < 100 | –
55 | CCC1C[C@@H](NC(=O)Nc2c(C)c(-c3cnn(C)c3)nn2-c2ccccc2)[C@H](c2ccccc2)C1 (stereo partly shown) [Compound I-103] | < 100 | –
